From patent US20110065706A1, “Therapeutic Agents 812” (AstraZeneca AB, priority 2009, published 2011) come the findings set out here.

The structures appear in SMILES notation.

The target of one assay is T1, human GPR119 (Homo sapiens, UniProt Q8TDV5).
T1 construct: expressed in transfected cells; host or cells: HEK 293s
T1 sequence (Q8TDV5 1-335): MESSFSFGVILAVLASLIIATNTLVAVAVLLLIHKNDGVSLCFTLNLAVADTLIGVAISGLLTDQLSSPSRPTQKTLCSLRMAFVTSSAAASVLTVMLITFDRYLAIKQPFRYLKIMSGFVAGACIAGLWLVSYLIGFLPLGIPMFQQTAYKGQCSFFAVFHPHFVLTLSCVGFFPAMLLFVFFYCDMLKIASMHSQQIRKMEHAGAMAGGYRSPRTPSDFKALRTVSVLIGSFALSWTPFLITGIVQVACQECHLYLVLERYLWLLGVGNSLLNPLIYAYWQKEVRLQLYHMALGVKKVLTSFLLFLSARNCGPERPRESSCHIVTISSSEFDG
Briefly: Cyclic AMP (HTRF cAMP) assay for human GPR119, Method A. It is filed as cell-based. The following applies: HEK293S, 0.75 h; Method A; HEK 293s cells over-expressing human GPR119; percent effect at top concentration 30 μM relative to maximum (50 μM Oleoylethanolamide) and minimum (1% DMSO) controls. For orientation: TR-FRET usually uses a lanthanide donor and a delayed reading to cut background.
`C[C@@H]1CN(C(=O)OC2CCOC2)CCN1c1ncc(OCc2ccc(S(C)(=O)=O)cc2)cn1` (stereo partly drawn) [Example 78, (3R)-Tetrahydrofuran-3-yl 3-methyl-4-(5-(4-(methylsulfonyl)benzyloxy)pyrimidin-2-yl)piperazine-1-carboxylate] registered an activation at 30 µM of 8%.
`CC1(OC(=O)N2CCN(c3ncc(OCc4ccc(S(C)(=O)=O)cc4)cn3)CC2)COC1` [Example 79, 3-Methyloxetan-3-yl 4-(5-(4-(methylsulfonyl)benzyloxy)pyrimidin-2-yl)piperazine-1-carboxylate] showed an activation at 30 µM of 37%.
Turning to `C[C@@H]1CN(C(=O)OC2(C)COC2)CCN1c1ncc(OCc2ccc(S(C)(=O)=O)cc2)cn1` [Example 80, (R)-3-methyloxetan-3-yl 3-methyl-4-(5-(4-(methylsulfonyl)benzyloxy)pyrimi-din-2-yl)piperazine-1-carboxylate], the activation at 30 µM amounted to 41%.
For `CC1(OC(=O)N2CCN(c3ncc(OCc4ccncc4C#N)cn3)CC2)COC1` [Example 81, 3-methyloxetan-3-yl 4-(5-((3-cyanopyridin-4-yl)methoxy)pyrimi-din-2-yl)piperazine-1-carboxylate], the activation at 30 µM amounted to 143%.
As for `C[C@@H]1CN(C(=O)OC2CCOCC2)CCN1c1ncc(OCc2ccncc2C#N)cn1` [Example 82, (R)-Tetrahydro-2H-pyran-4-yl 4-(5-((3-cyanopyridin-4-yl)methoxy)pyrimidin-2-yl)-3-methylpiperazine-1-carboxylate], the activation at 30 µM is 102%.
Take `CCS(=O)(=O)c1ccc(COc2cnc(N3CCN(C(=O)OC(C)(C)C)CC3)nc2)cc1` [Example 83, Tert-butyl 4-(5-(4-(ethylsulfonyl)benzyloxy)pyrimidin-2-yl)piperazine-1-carboxylate]: the activation at 30 µM worked out at 66%.
`CC(C)(C)OC(=O)N1CCN(c2ncc(OCc3ccc(S(=O)(=O)C4CC4)cc3)cn2)CC1` [Example 84, Tert-butyl 4-(5-(4-(cyclopropyl-sulfonyl)benzyloxy)pyrimidin-2-yl)pipcrazinc-1-carboxylate] registered an activation at 30 µM of 48%.
Molecule `CC(C)c1nc(N2CCN(c3ncc(OCc4ccncc4C#N)cn3)CC2)no1` [Example 85, 4-((2-(4-(5-Isopropyl-1,2,4-oxadiazol-3-yl)piperazin-1-yl)pyrimidin-5-yloxy)methyl)nicotinonitrile] registered an activation at 30 µM of 167%.
`CC(C)c1nc(N2CCN(c3ncc(OCc4ccc(S(C)(=O)=O)cc4)cn3)CC2)no1` [Example 87, 5-Isopropyl-3-(4-(5-(4-(methylsulfonyl)benzyloxy)pyrimidin-2-yl)piperazin-1-yl)-1,2,4-oxadiazole] displayed an activation at 30 µM of 48%.
`CS(=O)(=O)c1ccc(COc2cnc(N3CCN(c4noc(C(F)(F)F)n4)CC3)nc2)cc1` [Example 88, 3-(4-(5-(4-(methylsulfonyl)bcnzyloxy)pyrimidin-2-yl)pipcrazin-1-yl)-5-(trifluoromcthyl)-1,2,4-oxadiazole] returned an activation at 30 µM of 79%.
`CC(C)c1nc(N2CCN(c3ncc(OCc4ccc(S(C)(=O)=O)cc4)cn3)[C@H](C)C2)no1` [Example 89] returned an activation at 30 µM of 73%.
The molecule `C[C@@H]1CN(c2noc(C(F)(F)F)n2)CCN1c1ncc(OCc2ccc(S(C)(=O)=O)cc2)cn1` [Example 90, (R)-3-(3-methyl-4-(5-(4-(mcthylsulfonyl)bcnzyloxy)pyrimidin-2-yl)pipcrazin-1-yl)-5-(trifluoromcthyl)-1,2,4-oxadiazole] had an activation at 30 µM of 75%.
Still for that read-out and setting: then `CC(C)(C)OC(=O)N1CCN(c2ncc(OCc3ccc([S+]([O-])C(F)(F)F)cc3)cn2)CC1` (stereo not drawn) [Example 91, Tert-butyl 4-(5-(4-(trifluoromethylsulfinyl)benzyloxy)pyrimidin-2-yl)piperazine-1-carboxylate], with 32%; and `CC(C)(C)OC(=O)N1CCN(c2ncc(OCc3ccc(S(=O)(=O)CCN4CCOCC4)cc3)cn2)CC1` [Example 92, Tert-butyl 4-(5-(4-(2-morpholinoethylsulfonyl)benzyloxy)pyrimidin-2-yl)piperazine-1-carboxylate], with 68%; and `C[S+]([O-])c1ccc(COc2cnc(N3CCN(C(=O)OC(C)(C)C)CC3)nc2)cc1` (stereo not drawn) [Example 93, Tert-butyl 4-(5-(4-(methylsulfinyl)benzyloxy)pyrimidin-2-yl)piperazine-1-carboxylate], with 82%.
On to `CC(C)C(=O)Nc1ncc(COc2cnc(N3CCN(C(=O)OC(C)(C)C)CC3)nc2)cn1` [Example 94, Tert-butyl 4-(5-((2-isobutyramidopyrimidin-5-yl)methoxy)pyrimidin-2-yl)piperazine-1-carboxylate], for which the activation at 30 µM worked out at 44%.
Consider `C[C@@H]1CN(C(=O)O[C@H](C)C(F)(F)F)CCN1c1ncc(OCc2ccncc2C#N)cn1` [Example 103, (R)—((R)-1,1,1-trifluoropropan-2-yl) 4-(5-((3-cyanopyridin-4-yl)methoxy)pyrimidin-2-yl)-3-methylpiperazine-1-carboxylate], for which the activation at 30 µM stood at 244%.
Same read-out and setting: then `C[C@@H]1CN(C(=O)O[C@@H](C)C(F)(F)F)CCN1c1ncc(OCc2ccncc2C#N)cn1` [Example 104, (R)-((S)-1,1,1-trifluoropropan-2-yl)4-(5-((3-cyanopyridin-4-yl)methoxy)pyrimidin-2-yl)-3-mcthylpipcrazine-1-carboxylate], with 315%; and `N#Cc1cnccc1COc1cnc(N2CCN(C(=O)OCC(F)(F)F)CC2)nc1` [Example 106, 2,2,2-trifluorocthyl 4-(5-((3-cyanopyridin-4-yl)mcthoxy)pyrimidin-2-yl)pipcrazinc-1-carboxylate], with 193%.
Still for that read-out and setting: for `C[C@@H]1CN(c2noc(C3(C)COC3)n2)CCN1c1ncc(OCc2ccncc2C#N)cn1` [Example 107, (R)-4-((2-(2-methyl-4-(5-(3-methyloxetan-3-yl)-1,2,4-oxadiazol-3-yl)piperazin-1-yl)pyrimidin-5-yloxy)methyl)nicotinonitrile] the value was 188%; for `C[C@@H]1CN(C(=O)OC2(C(F)(F)F)COC2)CCN1c1ncc(OCc2ccc(S(C)(=O)=O)cc2)cn1` [Example 110, (R)-3-(trifluoromethyl) oxetan-3-yl 3-mcthyl-4-(5-(4-(mcthylsulfonyl)benzyloxy)pyrimidin-2-yl)piperazine-1-carboxylate], 55%; for `C[C@@H]1CN(C(=O)OC2(C(F)(F)F)COC2)CCN1c1ncc(OCc2ccncc2C#N)cn1` [Example 111, (R)-3-(trifluoromcthyl) oxetan-3-yl 4-(5-((3-cyanopyridin-4-yl)mcthoxy)pyrimidin-2-yl)-3-mcthylpipcrazine-1-carboxylate], 171%.

Still in this assay, the particulars now being: Method A; HEK 293s cells over-expressing human GPR119; midpoint of dose response curve; selected examples.
As to `C[C@@H]1CN(C(=O)OC2CCOCC2)CCN1c1ncc(OCc2ccncc2C#N)cn1` [Example 82, (R)-Tetrahydro-2H-pyran-4-yl 4-(5-((3-cyanopyridin-4-yl)methoxy)pyrimidin-2-yl)-3-methylpiperazine-1-carboxylate], the EC50 (in general, the concentration needed to bring the measured effect to its halfway point) was determined as 675 nM.
On to `CCS(=O)(=O)c1ccc(COc2cnc(N3CCN(C(=O)OC(C)(C)C)CC3)nc2)cc1` [Example 83, Tert-butyl 4-(5-(4-(ethylsulfonyl)benzyloxy)pyrimidin-2-yl)piperazine-1-carboxylate], for which the EC50 was 123 nM.
On the same count and under the same terms, then `C[C@@H]1CN(c2noc(C(F)(F)F)n2)CCN1c1ncc(OCc2ccc(S(C)(=O)=O)cc2)cn1` [Example 90, (R)-3-(3-methyl-4-(5-(4-(mcthylsulfonyl)bcnzyloxy)pyrimidin-2-yl)pipcrazin-1-yl)-5-(trifluoromcthyl)-1,2,4-oxadiazole], with 26 nM.

Still in this assay, the particulars now being: human GPR119 cAMP assay; top concentration 30 μM.
On to `COc1cc(COc2cnc(N3CCN(C(=O)OC(C)(C)C)CC3)nc2)cc(OC)n1` [tert-butyl 4-[5-[(2,6-dimethoxy-4-pyridyl)methoxy]pyrimidin-2-yl]piperazine-1-carboxylate], for which the “significant activity at a top concentration of 30 μM” value (shortened to “significant activity”) is recorded as “did not show significant activity”.
`CC(=O)Nc1ncc(COc2cnc(N3CCN(C(=O)OC(C)(C)C)CC3)nc2)cn1` [tert-butyl 4-[5-[(2-acetamidopyrimidin-5-yl)methoxy]pyrimidin-2-yl]piperazine-1-carboxylate]: the “significant activity” value is listed as “did not show significant activity”.
On to `Cc1cc(COc2cnc(N3CCN(C(=O)OC(C)(C)C)CC3)nc2)ccn1` [tert-butyl 4-[5-[(2-methyl-4-pyridyl)methoxy]pyrimidin-2-yl]piperazine-1-carboxylate], for which the “significant activity” value was “did not show significant activity”.
Take `CN1CCC(NC(=O)c2ccc(COc3cnc(N4CCN(C(=O)OC(C)(C)C)CC4)nc3)cc2)CC1` [tert-butyl 4-[5-[[4-[(1-methyl-4-piperidyl)carbamoyl]phenyl]methoxy]pyrimidin-2-yl]piperazine-1-carboxylate]: the “significant activity” value is listed as “did not show significant activity”.
`CN1CCC(N(C)C(=O)c2ccc(COc3cnc(N4CCN(C(=O)OC(C)(C)C)CC4)nc3)cc2)CC1` [tert-butyl 4-[5-[[4-[methyl-(1-methyl-4-piperidyl)carbamoyl]phenyl]methoxy]pyrimidin-2-yl]piperazine-1-carboxylate]: the “significant activity” value is recorded as “did not show significant activity”.
Turning to `N#Cc1cnccc1COc1cnc(N2CCN(C(=O)OC3CCOC3)CC2)nc1` (stereo not drawn) [tetrahydrofuran-3-yl 4-[5-[(3-cyano-4-pyridyl)methoxy]pyrimidin-2-yl]piperazine-1-carboxylate], the “significant activity” value is “did not show significant activity”.
Take `CS(=O)(=O)c1ccc(COc2cnc(N3CCN(C(=O)OC4CCOC4)CC3)nc2)cc1` (stereo not drawn) [tetrahydrofuran-3-yl 4-[5-[(4-methylsulfonylphenyl)methoxy]pyrimidin-2-yl]piperazine-1-carboxylate]: the “significant activity” value is given as “did not show significant activity”.
On to `N#Cc1cnccc1COc1cnc(N2CCN(C(=O)OC3CCOCC3)CC2)nc1` [tetrahydropyran-4-yl 4-[5-[3-cyano-4-pyridyl)methoxy]pyrimidin-2-yl]piperazine-1-carboxylate], for which the “significant activity” value is recorded as “did not show significant activity”.
